From US20260098007A1, “Compounds and Their Use in Filtering Ultraviolet and/or High-Energy Visible Light” (Soliome Inc., priority 2022, published 2026)
Where a SMILES comes first, the peptide text is derived from it. [ ]: non-standard residue; d: D form. Kyn = Nc1ccccc1C(=O)C[CH](N)C(=O)O

Key:
[1] = OxiSelect Hydroxyl Radical Antioxidant Capacity (HORAC) Activity Assay; format: biochemical; conditions: for antioxidant potential (HORAC) compared with gallic acid: result in words
From the text: An OxiSelect Hydroxyl Radical Antioxidant Capacity (HORAC) Activity Assay (Cell Biolabs Inc. catalog #STA-346-T) was used to determine the antioxidant potential of compound 4 (butyl 4-(2-aminophenyl)-2-(4-(2-aminophenyl)-2-butyramido-4-oxobutanamido)-4-oxobutanoate) following the manufacturer's protocol. Gallic Acid (GA) was used as antioxidant Calibrator: The HORAC assay was used to evaluate the application of the compounds of the invention as antioxidant.
A small amount of compound 4 was resuspended in assay diluent and the concentration determined using the extinction coefficient previously determined at 368 nm (6070 M^−1 cm^−1). The concentration of the stock solution was 624 μM. Three concentrations of the compound were tested in the assay: 468 μM, 312 μM, and 156 μM. The assay was run in a clear bottomed 96-well plate using a Molecular Devices SpectraMax M2 with an excitation wavelength of 480 nm and an emission wavelength of 530 nm. The emission wavelength cutoff was set to 515 nm. The photomultiplier sensitivity set to medium. The plate was read once a minute for 60 minutes.
Compounds 42, 43, 44, and 46, were tested for their antioxidant capacity as described as previously described using an OxiSelect Hydroxyl Radical Antioxidant Capacity (HORAC) Activity Assay (Cell Biolabs Inc. catalog #sta-346-T).

[2] = Determination of maximal UV absorbance, extinction coefficients and critical wavelengths (UV visible spectroscopy); format: physicochemical; conditions: for peak absorbance: UV visible spectroscopy, diluted in ethanol; for critical wavelength: in vitro, 90% of the total absorbance integrated from 290 to 400 nm
Protocol: Extinction coefficients were determined by measuring the dry mass of each compounds and diluting it serially in ethanol (CAS […]). A series of concentrations were tested with UV visible spectroscopy.
In vitro critical wavelengths were determined by integrating the total absorbance from 290 to 400 nm and finding the region under that curve from higher energy to lower energy that is equal to 90% of the total absorbance, similar to that described by Diffey B. L., et al. J. Am. Acad. Dermatol. 2000, 43, 1024-1035.

[3] = Absorbance spectrum (ultraviolet-visible spectroscopy, diode array detector); format: physicochemical; conditions: for absorbance region (in words): FIG. 1 and 2
Protocol: High pressure liquid chromatography: Samples were suspended in ethanol (Sigma Aldrich 103343081, CAS 64-17-5) and injected onto a reverse phase base deactivated silica C-18 column, […], 150×4.6 mm (Hypersil 9867). This column was temperature controlled at 35° C. using a Shimadzu CTO-10A column oven. Samples were injected with a Shimadzu SIL-10AD VP auto injector. The program was run using a Shimadzu LC1-20AD pump system, and detection was monitored with ultraviolet-visible spectroscopy from 200 to 700 nm using a Shimadzu SPD-M20A diode array detector.

skin = assay: Skin protection against damage by UV (erythema); format: in vivo; conditions: 10% (w/w) solution at 2 mg/cm^2 on skin, Sperti Sun Lamp 20 cm for 10 min, vs unprotected skin
Protocol: To test the protective capability of this class of compounds against damage to skin by UV, a 10% (w/w) solution of compounds was applied to skin at 2 mg/cm^2 and allowed to dry for 15 minutes. UV light was introduced using a […] Sun Lamp (model Miami P107). The application area on the skin was held facing the lamp at a distance of 20 cm for 10 min.

Structure (SMILES): Nc1ccccc1C(=O)CC(NC(=O)CCCC(=O)O)C(=O)O (centres unmarked) [Compound 46, 5-((3-(2-aminophenyl)-1-carboxy-3-oxopropyl)amino)-5-oxopentanoic acid]
- antioxidant potential (HORAC) compared with gallic acid [1]: equal, or greater than, gallic acid

Structure (SMILES): CCCCOC(=O)C(CC(=O)c1ccccc1N)NC(=O)C(CC(=O)c1ccccc1N)NC(=O)CCC (centres unmarked) [Compound 4, butyl 4-(2-aminophenyl)-2-(4-(2-aminophenyl)-2-butyramido-4-oxobutanamido)-4-oxobutanoate]
- antioxidant potential (HORAC) ([1]; tested at 468 μM, 312 μM and 156 μM, gallic acid as calibrator): 1.8 gallic acid equivalents per mole
- peak absorbance [2]: around 368 nm
- critical wavelength [2]: 385 nm

Structure (SMILES): CC(=O)NC(CC(=O)c1ccccc1N)C(N)=O (centres unmarked) [Compound 44, 2-acetamido-4-(2-aminophenyl)-4-oxobutanamide]
- antioxidant potential (HORAC) compared with gallic acid [1]: equal, or greater than, gallic acid

Structure (SMILES): CCCC(=O)Nc1ccccc1C(=O)CC(NC(C)=O)C(=O)NC(CC(=O)c1ccccc1NC(=O)CCC)C(=O)OC (centres unmarked) [Compound 2, Methyl 2-(2-acetamido-4-(2-butyramidophenyl)-4-oxobutanamido)-4-(2-butyramidophenyl)-4-oxobutanoate]
- absorbance region (in words) [3]: strong absorbance in the UVB region

Structure (SMILES): CCCCOC(=O)C(CC(=O)c1ccccc1NC(=O)CCC)NC(=O)C(CC(=O)c1ccccc1NC(=O)CCC)NC(=O)CCC (centres unmarked) [Compound 5, butyl 2-(2-butyramido-4-(2-butyramidophenyl)-4-oxobutanamido)-4-(2-butyramidophenyl)-4-oxobutanoate]
- peak absorbance [2]: around 325 nm
- critical wavelength [2]: 355 nm
- extinction coefficient ([2]; slope of absorbance vs concentration, in ethanol, at peak absorbance): 4600 M⁻¹ cm⁻¹

Structure (SMILES): Nc1ccccc1C(=O)CC(NC(=O)CCC(=O)O)C(=O)O (centres unmarked) [Compound 42, 4-(2-aminophenyl)-2-(3-carboxypropanamido)-4-oxobutanoic acid]
- antioxidant potential (HORAC) compared with gallic acid [1]: equal, or greater than, gallic acid
- erythema after UV exposure (skin): significantly reduced erythema

Structure (SMILES): COC(=O)C(CC(=O)c1ccccc1N)NC(=O)C[N+](C)(C)C (centres unmarked) [Compound 43, 2-((4-(2-aminophenyl)-1-methoxy-1,4-dioxobutan-2-yl)amino)-N,N,N-trimethyl-2-oxoethan-1-aminium]
- antioxidant potential (HORAC) compared with gallic acid [1]: equal, or greater than, gallic acid

Structure (SMILES): COC(=O)C(CC(=O)c1ccccc1N)NC(=O)C(CC(=O)c1ccccc1N)NC(C)=O (centres unmarked) [Compound 1, methyl 2-(2-acetamido-4-(2-aminophenyl)-4-oxobutanamido)-4-(2-aminophenyl)-4-oxobutanoate] (Ac-[Kyn]-[Kyn]-OMe; configuration not given here)
- absorbance upper wavelength limit ([3]; FIG. 1): up to 410 nm
- absorbance region (in words) [3]: strong absorbance in the UVA region
